# Results published in ChEMBL document CHEMBL1154456, “CoMFA analysis of dual/multiple PPAR activators” (Eur J Med Chem, 2008).
# What was measured:
# [1] = target: T1, Peroxisome proliferator-activated receptor delta (Homo sapiens) (UniProt Q03181); assay: Agonist activity at human PPARdelta expressed in african green monkey CV1 cells co-transfected with Gal4 assessed as reporter activity by transient transactivation assay; assay type: functional, cell-based; set-up: concentration or dose not given beside the values; details: CV-1
# T1 sequence (whole entry): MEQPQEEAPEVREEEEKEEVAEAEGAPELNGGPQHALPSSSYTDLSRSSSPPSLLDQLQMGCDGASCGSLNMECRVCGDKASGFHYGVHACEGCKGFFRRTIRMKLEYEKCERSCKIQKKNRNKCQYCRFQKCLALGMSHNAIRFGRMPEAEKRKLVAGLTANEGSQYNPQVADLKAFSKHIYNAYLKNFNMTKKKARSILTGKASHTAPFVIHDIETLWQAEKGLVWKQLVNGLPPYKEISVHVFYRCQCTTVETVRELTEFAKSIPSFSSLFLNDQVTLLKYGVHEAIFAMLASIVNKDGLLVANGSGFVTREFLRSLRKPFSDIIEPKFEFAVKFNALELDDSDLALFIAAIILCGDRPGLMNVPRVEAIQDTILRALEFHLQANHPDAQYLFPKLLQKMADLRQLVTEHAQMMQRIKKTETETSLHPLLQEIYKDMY
# [2] = target: T2, Peroxisome proliferator-activated receptor gamma (Homo sapiens, UniProt P37231); assay: Agonist activity at human PPARgamma expressed in african green monkey CV1 cells co-transfected with Gal4 assessed as reporter activity by transient transactivation assay; assay type: functional, cell-based, CV-1
# T2 sequence (P37231 whole entry): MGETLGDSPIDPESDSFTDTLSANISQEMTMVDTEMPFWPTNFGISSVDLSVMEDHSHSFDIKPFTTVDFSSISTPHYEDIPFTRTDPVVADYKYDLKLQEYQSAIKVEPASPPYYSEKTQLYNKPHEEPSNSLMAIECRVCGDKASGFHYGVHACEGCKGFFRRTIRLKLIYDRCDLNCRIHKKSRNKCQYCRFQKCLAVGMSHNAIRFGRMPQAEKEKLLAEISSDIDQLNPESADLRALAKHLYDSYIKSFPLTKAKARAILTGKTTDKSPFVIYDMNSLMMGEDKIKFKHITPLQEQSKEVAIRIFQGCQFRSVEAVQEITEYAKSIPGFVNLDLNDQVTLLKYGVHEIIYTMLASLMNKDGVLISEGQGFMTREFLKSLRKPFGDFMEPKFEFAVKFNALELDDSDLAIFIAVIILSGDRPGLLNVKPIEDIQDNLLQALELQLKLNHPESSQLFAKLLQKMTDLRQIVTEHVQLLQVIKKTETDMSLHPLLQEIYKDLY
Compound,Activity [1],EC50 [2]
CC(C)OC(Cc1ccc(OCCc2noc(-c3cc(C(F)(F)F)cc(C(F)(F)F)c3)n2)cc1)C(=O)O (stereo unspecified),< 40%,–
CC(C)OC(Cc1ccc(OCCc2noc(-c3ccccc3)n2)cc1)C(=O)O (stereo unspecified),< 40%,–
CC(C)OC(Cc1ccc(OCCc2noc(-c3ccc(F)cc3)n2)cc1)C(=O)O (stereo unspecified),< 40%,–
CC(C)OC(Cc1ccc(OCCc2noc(-c3ccccc3C(F)(F)F)n2)cc1)C(=O)O (stereo unspecified),–,160 nM
CC(C)OC(Cc1ccc(OCc2noc(C3CCCCC3)n2)cc1)C(=O)O (stereo unspecified),< 40%,–
CC(C)OC(Cc1ccc(OCCc2noc(-c3ccc(Cl)cc3)n2)cc1)C(=O)O (stereo unspecified),40%,–
